As usually defined, the melting point is the temperature of the solid-liquid transition.

Our source for the melting point values is patent US20110021556A1, “PYRROLIDINYL DERIVATIVES AND USES THEREOF” (Hoffman-La Roche, Inc., priority 2008, published 2011).

SMILES strings stand for the structures. Where a name gives a salt, the structure may show the parent alone.

For the compound `c1ccc(CC2(c3ccc4sccc4c3)CCNC2)cc1` (centres unmarked) (as salt: hydrochloride), the melting point fell in the range of 120.9 to 123 °C.
For `c1ccc(CC2(c3ccc4[nH]ccc4c3)CCNC2)nc1` (centres unmarked), the melting point is 169.9 to 171.1 °C.
